Where two headings read alike, the source gives them in different places. Marks after values point to notes of the source that are not given here.
Legend:
[1] = test system: Staphylococcus aureus bone and joint infection; assay: Outcome (treatment failure) of teicoplanin-treated S. aureus bone and joint infection and its determinants; type: in vivo, human
Text: BJI diagnosis was based upon the existence of clinical and biological evidences of infection, and at least one reliable bacteriological sample positive for S. aureus (i.e., percutaneous joint fluid aspiration, surgical sample, and/or blood culture). BJI were classified according to: i) the existence of orthopedic implant (i.e. joint prosthesis, peripheral or vertebral osteosynthesis); and ii) progression of infection, differentiating acute (≤3 weeks) versus chronic (>3 weeks) infection, calculated from the presumed date of inoculation (i.e., date of device implantation for postoperative orthopaedic device-related infection (ODI), or date of symptom onset for native BJI) up to diagnosis.
Treatment failure was defined as persisting infection under appropriate antimicrobial therapy, relapse after the interruption of antimicrobial therapy, necessity of surgical revision on the account of persisting septic focus ≥5 days after the first intervention, superinfections, and/or fatal outcome if BJI-related.

S. aureus isolates = assay: Susceptibility of staphylococcal isolates to teicoplanin; type: cell-based, Staphylococcus aureus; settings: all S. aureus isolates of the 65 episodes (MRSA 16.9 %); exact MIC not available; breakpoints ref 23
[2] = ref 12 (LeFrock et al), cited from earlier work
Text: These current difficulties in the field of BJI explain the limited and controversial data available on the efficacy of teicoplanin in staphylococcal BJI. In past studies, treatment success rate ranged from 53 to 91 % [11–14]. The low success rate observed in our study (60 %) may be explained by several factors. First, there is a significant selection bias as patients were recruited in a reference center dedicated to manage complex BJI with a high-risk of failure. In addition, most of past studies included native BJI with a relatively short follow-up (<1 year). Finally, pharmacodynamics par ...

[3] = in vivo
Text: Patients diagnosed with staphylococcal BJI were identified by cross-referencing the prospective maintained databases of the regional referral center for BJI and the bacteriology laboratory, which list exhaustively all strains isolated from osteoarticular samples since 2001. Patients with diabetic foot- and decubitus ulcer-related BJI were excluded, as they require a specific management. If patients presented more than one osteoarticular infected site, they were considered as independent events for cohort description and outcome analysis, but pooled for tolerance and pharmacologic evaluation. For each patient, data were collected from medical records, nursing charts and biological software in an anonymous standardized case report form.
A Cmin >15 mg/L was taken as an acceptable therapeutic target. Patients with a Cmin >25 mg/L were considered as overexposure.
For intravenous (IV) administration, each dose was diluted in 100 mL of isotonic saline solution and administrated over a 30-min period. For subcutaneous (SC) injections, each dose was diluted in 50 mL of isotonic saline solution and delivered by a nurse during a 30- to 60-min gravity infusion using a butterfly disposable needle.
Descriptive statistics were used to estimate the frequencies of the study variables, described as percentages (%) for dichotomous variables, and medians (interquartile range (IQR)) for continuous variables. For the percentage calculation of each variable, the number of missing values was excluded from the denominator. Non-parametric statistical methods were used to compare the study groups (Chi-squared test, Fisher exact test and Mann–Whitney U test), as appropriate. […] Clinically pertinent variables with a p-value <0.15 in the univariate analysis were included in the final multivariate models. A value of p <0.05 was considered as significant. All analyses were performed using SPSS software version 19.0 (SPSS, Chicago, IL).

[4] = cited from earlier work
Text: However, the incidence of AE was probably been underestimated due to the retrospective nature of our study (memory bias for non-severe AE). Indeed, in the prospective study of LeFrock et al, the rate of AE was 35 %, requiring discontinuation of treatment in 17 % of the cases. […] The retrospective design may result in underestimating non-serious AE such as injection site reactions.

[5] = Teicoplanin-related adverse events (CTCAE) and their determinants; set-up: species or system human; settings: in vivo
Text: Teicoplanin-related adverse events (AE) occurring during follow-up were notified and classified according to the Common Terminology Criteria for Adverse Events (CTCAE, National Cancer Institute, 2003). Teicoplanin accountability in the AE occurrence was left to the clinician appreciation, with the help of a pharmacovigilance specialist in doubtful cases.

Q: For teicoplanin, which “Influence of administration route on outcome” value ([1]; IV versus SC, treatment failure analysis) is on record?
A: did not influence the outcome

Q: And the Limb amputations ([1]; among iterative surgical procedures, 65 episodes)?
A: two

Q: What about the “Susceptibility of staphylococcal isolates” value (S. aureus isolates) of the same substance?
A: susceptible

Q: And the Cmin ([2]; average after 6 days, 6 mg/kg/day after 5 loading doses of 6 mg/kg/12 h)?
A: 10000 ng/mL

Q: What about the Cmin ([2]; average from the third day, 12 mg/kg/day after 5 loading doses of 12 mg/kg/12 h) of the same substance?
A: 20000 ng/mL

Q: And the “Patients obtaining Cmin >15 mg/L within the first 2 weeks of treatment” value [3]?
A: 66.1%

Q: And the “Subcutaneous versus intravenous route: pharmacokinetics and tolerance” value [3]?
A: no difference

Q: And the “Delay for Cmin >15 mg/L” value ([3]; iv)?
A: 9 (6–13) days

Q: What about the “Initial Cmin <15 mg/L” value ([3]; iv) of the same substance?
A: 29 (74.4 %)

Q: What about the “Initial Cmin >25 mg/L” value ([3]; iv) of the same substance?
A: 0 (0 %)

Q: What about the “Overdose (day 1 to 14), Cmin >25 mg/L” value ([3]; iv) of the same substance?
A: 8 (16.0 %)

Q: And the “Delay for Cmin >15 mg/L” value ([3]; sc)?
A: 7 (4.5–9.5) days

Q: What about the “Initial Cmin <15 mg/L” value ([3]; sc) of the same substance?
A: 7 (70.0 %)

Q: What about the “Initial Cmin >25 mg/L” value ([3]; sc) of the same substance?
A: 0 (0 %)

Q: And the “Overdose (day 1 to 14), Cmin >25 mg/L” value ([3]; sc)?
A: 2 (14.3 %)

Q: And the “Risk of toxicity with dose increase” value ([4]; dose increase from 400 to 600 mg/day)?
A: not associated with an increased risk of toxicity

Q: What about the “Severe local reaction (grade ≥3)” value ([4]; prospective evaluation of SC teicoplanin in 30 patients, ref 29 (El Samad et al)) of the same substance?
A: no severe local reaction

Q: And the “Number of cutaneous rashes” value [5]?
A: 5

Q: And the “Number of episodes of headache” value [5]?
A: 1

Q: What about the Number of pancytopenia [5] of the same substance?
A: one

Q: What about the “OR (95%CI) of teicoplanin-related adverse event: administration route switch” value [5] of the same substance?
A: 0.221 (0.023-2.124)

Q: And the “OR (95%CI) of teicoplanin-related adverse event: delay for Cmin >15 mg/L (days)” value [5]?
A: 1.019 (0.769-1.351)

Q: And the “OR (95%CI) of teicoplanin-related adverse event: initial Cmin (day 3 to 5, mg/L)” value [5]?
A: 0.818 (0.656-1.020)

Q: And the “OR (95%CI) of teicoplanin-related adverse event: initial Cmin <15 mg/L” value [5]?
A: 2.037 (0.213-19.494)

Q: What about the “OR (95%CI) of teicoplanin-related adverse event: loading dose (mg/kg/12h)” value [5] of the same substance?
A: 1.850 (0.001-4228.586)^b

Q: And the “OR (95%CI) of teicoplanin-related adverse event: loading dose given” value [5]?
A: 0.889 (0.091-8.646)

Q: And the “OR (95%CI) of teicoplanin-related adverse event: maintenance dose (mg/kg/24h)” value [5]?
A: 5.150 (0.004-6359.356)^b

Q: What about the “OR (95%CI) of teicoplanin-related adverse event: number of loading injections” value [5] of the same substance?
A: 0.870 (0.559-1.354)

Q: What about the “Resolution of AE” value [5] of the same substance?
A: Yes

Q: And the “OR (95%CI) of teicoplanin-related adverse event: IV route” value ([5]; iv)?
A: 0.571 (0.093-3.508)

Q: What about the “Teicoplanin-related AE” value ([5]; iv) of the same substance?
A: 4 (8.7 %)

Q: And the “Teicoplanin-related AE” value ([5]; sc)?
A: 2 (14.3 %)

— article PMC5093939, “Teicoplanin-based antimicrobial therapy in Staphylococcus aureus bone and joint infection: tolerance, efficacy and experience with subcutaneous administration” (BMC Infectious Diseases, 2016)
